Test results as given in patent publication US20230226137A1, “Novel Pharmaceutical Composition for Treating Dry Eye Syndrome” (Novacell Technology Inc., priority 2020, published 2023).
Non-standard residues stand in square brackets, D forms with d. Residues, ends and D or L forms follow the SMILES beside them. *: point of attachment. Octanoyl = CCCCCCCC(=O)*

Assays:
Type in all cases: cell-based
FPR2 = target: T1, FPR2 (Homo sapiens, UniProt P25090); experiment: FPR2 activation, intracellular calcium (Fura-2/AM) in RBL cells overexpressing FPR2; conditions: calcium ion increase in FPR2-overexpressing RBL cells
T1 construct: expressed in transfected cells; host or cells: RBL cells (FPR2-overexpressing)
T1 sequence (P25090 1-351): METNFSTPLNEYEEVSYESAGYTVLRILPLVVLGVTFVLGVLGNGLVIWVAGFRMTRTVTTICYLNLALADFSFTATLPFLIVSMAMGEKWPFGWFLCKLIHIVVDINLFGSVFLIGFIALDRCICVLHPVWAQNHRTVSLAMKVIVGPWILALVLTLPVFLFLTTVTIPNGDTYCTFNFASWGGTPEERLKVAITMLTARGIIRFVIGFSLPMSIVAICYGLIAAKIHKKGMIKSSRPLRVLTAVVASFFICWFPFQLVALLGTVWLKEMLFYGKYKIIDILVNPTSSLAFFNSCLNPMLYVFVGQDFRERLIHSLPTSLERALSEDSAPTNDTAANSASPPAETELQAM
Procedure: The present inventors have observed changes in calcium ion permeability in order to confirm whether or not the immunomodulatory and antibacterial peptide candidates of the present invention activates the immunomodulatory function of a living organism. Specifically, the concentration of calcium ions in cells was measured in order to confirm whether the peptide activates FPR2. To this end, the present inventors used RBL cells in which FPR2 was not expressed, RBL cells in which FPR1 was overexpressed (FPR1-RBL), and RBL cells in which FPR2 was overexpressed, and used Fura-2/AM, a staining material having a strong binding affinity for calcium, in a method for sensitively measuring free intracellular calcium ions. That is, the cells were cultured in RPMI medium containing 10% fetal bovine serum, centrifuged in the mid-log phase (1-3×10^7 cells/mL), and harvested. Then, the cells were washed several times with RPMI medium containing no fetal bovine serum and resuspended in RPMI medium to a concentration of 1×10^7 cells/mL. Then, the Fura-2/AM at a final concentration of 3 μM was added thereto and incubated in an incubator (37° C., 5% CO2) for 45 minutes with continuous stirring. After the appropriate time elapsed, the cells were harvested and washed again several times with RPMI medium. Then, the cells were suspended in an appropriate amount of RPMI medium, in which sulfinpyrazone was supplemented at a concentration of 250 μM, so as to prevent the Fura-2 that entered into the cells from being released to the outside of the cells. Approximately 2×10^6 cells were taken each time and harvested by rapid centrifugation and resuspended in 1 mL of Locke solution in which EGTA was added but no calcium ions were added, and the absorbance ratios at two wavelengths of 340 nm and 380 nm were monitored on a spectrophotometer. After treating with the peptide according to the present invention at different concentrations (1 μM, 0.1 μM, and 0.01 μM) at intervals of about 1 minute, the difference in absorbance at two wavelengths was examined and this was later converted to the concentration of calcium ions freed into the cells according to the method of Grynkiewicz.

Pseudomonas aeruginosa = conditions: 18 h
Procedure: (§1) In addition, in order to measure the antibacterial activity of the peptide, Staphylococcus aureus, which is a gram-positive bacterium, and Pseudomonas aeruginosa, which is a gram-negative bacterium, were prepared, followed by 4th smearing on a flat medium of an agar, and culturing was performed overnight in a 36° C. incubator. The next day, strain colonies generated on the agar plate medium were inoculated into 3 mL-nutrient broth and cultured overnight in a shaking incubator at 36° C. and 220 rpm. The next day, the bacteria were diluted to measure absorbance at 600 nm, the absorbance was adjusted to 0.5, and the bacteria were diluted in a nutrient broth at a ratio of 1:100. Then, the peptides prepared in the Example were sequentially diluted in a nutrient broth at concentrations of 0, 1.25, 2.5, 5, 10, 20, and 40 μM, prepared 1 mL each, and then 1 mL of the diluted bacteria was inoculated. Then, the mixture was stirred at 36° C. and 220 rpm and incubated for 18 hours, and then the absorbance was measured at 600 nm.

Staphylococcus aureus = conditions: 18 h
Procedure: as §1

In the case of CCCCCCCC(=O)N[C@@H](CCCCN)C(=O)N[C@@H](Cc1ccccc1)C(=O)N[C@@H](CCCCN)C(=O)N[C@@H](Cc1c[nH]c2ccccc12)C(=O)N[C@@H](CCCNC(=N)N)C(=O)N[C@@H](Cc1ccc(O)cc1)C(=O)N[C@H](CCSC)C(N)=O [compound 2] (Octanoyl-KFKWRY[dM]-NH2), the EC50 (FPR2) is reported as 0.0929 µM, the IC50 (Pseudomonas aeruginosa) is reported as 4.69 µM and the IC50 (Staphylococcus aureus) is reported as 21 µM.
Molecule CSCC[C@@H](NC(=O)[C@H](Cc1ccc(O)cc1)NC(=O)[C@H](CCCNC(=N)N)NC(=O)[C@H](Cc1c[nH]c2ccccc12)NC(=O)[C@H](CCCCN)NC(=O)[C@H](Cc1ccccc1)NC(=O)[C@@H](N)CCCCN)C(N)=O [compound 3] (H-KFKWRY[dM]-NH2) has an EC50 (FPR2) of 0.0654 µM, an IC50 (Pseudomonas aeruginosa) of 7.41 µM and an IC50 (Staphylococcus aureus) of 19.8 µM.
With CCCCCCCC(=O)N[C@@H](CCCCN)C(=O)N[C@@H](Cc1c[nH]c2ccccc12)C(=O)N[C@@H](CCCCN)C(=O)N[C@@H](Cc1c[nH]c2ccccc12)C(=O)N[C@@H](CCCNC(=N)N)C(=O)N[C@@H](Cc1ccc(O)cc1)C(=O)N[C@H](CCSC)C(N)=O [compound 4] (Octanoyl-KWKWRY[dM]-NH2) the EC50 (FPR2) was 0.108 µM, the IC50 (Pseudomonas aeruginosa) was 8.48 µM and the IC50 (Staphylococcus aureus) was 12.3 µM.
In the case of CCCCCCCC(=O)N[C@@H](CCCNC(=N)N)C(=O)N[C@@H](Cc1c[nH]c2ccccc12)C(=O)N[C@@H](CCCNC(=N)N)C(=O)N[C@@H](Cc1c[nH]c2ccccc12)C(=O)N[C@@H](CCCNC(=N)N)C(=O)N[C@@H](Cc1ccc(O)cc1)C(=O)N[C@H](CCSC)C(N)=O [compound 5] (Octanoyl-RWRWRY[dM]-NH2), the EC50 (FPR2) is reported as 0.0907 µM, the IC50 (Pseudomonas aeruginosa) is reported as 25.4 µM and the IC50 (Staphylococcus aureus) is reported as 4.86 µM.
Work on CSCC[C@@H](NC(=O)[C@H](Cc1ccc(O)cc1)NC(=O)[C@H](CCCNC(=N)N)NC(=O)[C@H](Cc1c[nH]c2ccccc12)NC(=O)[C@H](CCCNC(=N)N)NC(=O)[C@H](Cc1c[nH]c2ccccc12)NC(=O)[C@@H](N)CCCNC(=N)N)C(N)=O [compound 6] (H-RWRWRY[dM]-NH2) yielded an EC50 (FPR2) of 0.0303 µM, an IC50 (Pseudomonas aeruginosa) of 6.43 µM and an IC50 (Staphylococcus aureus) of 39.9 µM.
